Reference: US7888386B2, “3-(phenoxyphenylmethyl)pyrrolidine compounds” (Theravance, Inc., priority 2008, dated 2011)
Read-outs that look alike come from different tables or passages of the source.

Assays:
[1] = Thermal analysis (DSC) of crystalline salt; type: physicochemical; conditions: crystalline monohydrochloride salt, heating ramp 10° C./min
Description: Differential scanning calorimetry (DSC) was performed using a TA Instruments Model Q-100 module with a Thermal Analyst controller. Data were collected and analyzed using TA Instruments Thermal Solutions software. A 1.64 mg sample of the crystalline form of Example 2 was accurately weighed into a covered aluminum pan. After a 5 minute isothermal equilibration period at 22° C., the sample was heated using a linear heating ramp of 10° C./min from 22° C. to 250° C.

[2] = molecular target: T1, hSERT (Homo sapiens, UniProt P31645); test: hSERT binding assay (Assay 1)
T1 construct: expressed in transfected cells; host or cells: HEK-293 derived cell line, stably transfected; membrane preparation
In short: (§1)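 Membranes from HEK-293 cells stably expressing human NET or SERT competed test compound against ^3H-nisoxetine (hNET) or ^3H-citalopram (hSERT). Buffer was 50 mM Tris-HCl pH 7.4, 120 mM NaCl, 5 mM KCl, 0.1% BSA and 400 μM ascorbic acid.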

[3] = molecular target: T2, hNET (Homo sapiens, UniProt P23975); test: hNET binding assay (Assay 1); conditions: read-out: NET pKi (converted)
T2 construct: expressed in transfected cells; host or cells: HEK-293 derived cell line, stably transfected; membrane preparation
In short: as §1

[4] = ratio of binding Ki at hSERT to Ki at hNET, rounded off to the nearest tenth
[5] = membranes of HEK-293 cells expressing hNET, 1.0 nM 3H-nisoxetine
[6] = ratio of SERT Ki to NET Ki from binding assays

T2 sequence (P23975 whole entry): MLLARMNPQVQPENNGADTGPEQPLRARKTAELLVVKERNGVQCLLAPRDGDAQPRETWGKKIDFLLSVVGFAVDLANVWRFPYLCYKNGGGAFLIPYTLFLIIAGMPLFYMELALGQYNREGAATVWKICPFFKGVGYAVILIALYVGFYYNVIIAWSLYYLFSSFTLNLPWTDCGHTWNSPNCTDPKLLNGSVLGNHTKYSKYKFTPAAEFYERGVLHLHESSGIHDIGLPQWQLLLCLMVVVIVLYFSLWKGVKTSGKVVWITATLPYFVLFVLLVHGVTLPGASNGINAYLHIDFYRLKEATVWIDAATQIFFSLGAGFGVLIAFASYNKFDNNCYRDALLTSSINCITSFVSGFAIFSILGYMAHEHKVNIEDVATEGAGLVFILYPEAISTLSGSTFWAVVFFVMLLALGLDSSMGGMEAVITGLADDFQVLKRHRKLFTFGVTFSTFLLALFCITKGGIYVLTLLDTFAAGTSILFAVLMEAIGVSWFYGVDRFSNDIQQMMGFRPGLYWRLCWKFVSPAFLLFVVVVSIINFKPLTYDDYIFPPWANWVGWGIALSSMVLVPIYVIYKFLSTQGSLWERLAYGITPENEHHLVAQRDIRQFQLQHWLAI
T1 sequence (P31645 whole entry): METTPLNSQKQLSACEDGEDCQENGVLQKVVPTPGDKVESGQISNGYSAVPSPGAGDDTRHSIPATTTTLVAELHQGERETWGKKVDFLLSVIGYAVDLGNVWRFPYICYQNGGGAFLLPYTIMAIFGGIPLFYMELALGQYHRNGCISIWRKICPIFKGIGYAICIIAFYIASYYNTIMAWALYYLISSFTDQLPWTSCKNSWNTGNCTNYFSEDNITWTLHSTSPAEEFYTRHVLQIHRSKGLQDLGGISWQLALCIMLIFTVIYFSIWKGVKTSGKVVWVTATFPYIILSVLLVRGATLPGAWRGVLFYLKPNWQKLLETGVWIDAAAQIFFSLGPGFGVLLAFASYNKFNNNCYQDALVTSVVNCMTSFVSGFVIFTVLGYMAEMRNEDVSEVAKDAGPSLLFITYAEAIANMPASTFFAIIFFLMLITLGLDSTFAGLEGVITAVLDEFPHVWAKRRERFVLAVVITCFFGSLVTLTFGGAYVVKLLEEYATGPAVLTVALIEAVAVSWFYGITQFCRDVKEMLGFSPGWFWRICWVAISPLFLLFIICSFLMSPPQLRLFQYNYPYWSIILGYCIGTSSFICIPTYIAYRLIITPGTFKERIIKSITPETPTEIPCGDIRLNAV

Fc1ccc(F)c(O[C@H](c2ccccc2)[C@@H]2CCNC2)c1Cl [Ex. 14, (R)-3-[(S)-(2-chloro-3,6-difluorophenoxy)phenyl-methyl]pyrrolidine]
no thermal decomposition below (DSC) [1]: ≥ 160 °C

Clc1cc(Cl)cc(O[C@H](c2ccccc2)[C@@H]2CCNC2)c1 [Ex. 16, (R)-3-[(S)-(3,5-Dichlorophenoxy)phenylmethyl]pyrrolidine]
no thermal decomposition below (DSC) [1]: ≥ 220 °C

Fc1cc(F)c(Cl)c(O[C@@H](c2ccccc2)[C@H]2CCNC2)c1Cl [Ex. 11, (S)-3-[(R)-(2,6-dichloro-3,5-difluorophenoxy)phenylmethyl]pyrrolidine]
no thermal decomposition below (DSC) [1]: ≥ 190.7 °C

Cc1cccc([C@@H](Oc2ccccc2Cl)[C@@H]2CCNC2)c1 (racemic) [Compound 20-6]
SERT Ki/NET Ki [2, 4]: 1.6 | Ki [3, 5]: 3.98 nM

COC(=O)c1c(F)cccc1OC(c1ccccc1)C1CCNC1 (stereo not drawn) [Compound 25-34]
SERT Ki/NET Ki [2, 4]: 100 | Ki [3, 5]: 1 nM

Cc1cc(F)ccc1O[C@@H](c1ccccc1)[C@H]1CCNC1 [27-14]
SERT Ki/NET Ki [2, 6]: 0.3 | Ki ([3]; hNET binding assay): 2 nM

Clc1cccc(OC(c2cccc(Cl)c2)C2CCNC2)c1 (stereo not drawn) [Compound 22-4]
SERT Ki/NET Ki [2, 4]: 0.2 | Ki [3, 5]: 7.94 nM

CC(C)c1ccccc1OC(c1cccc(F)c1)C1CCNC1 (stereo not drawn) [Compound 20-13]
SERT Ki/NET Ki [2, 4]: 10 | Ki [3, 5]: 5.01 nM

Fc1ccc(Oc2cccc(O[C@H](c3ccccc3)[C@@H]3CCNC3)c2)cc1 (racemic) [Compound 21-15]
SERT Ki/NET Ki [2, 4]: 1 | Ki [3, 5]: 2 nM

COc1ccc(Cl)cc1OC(c1ccccc1)C1CCNC1 (stereo not drawn) [29-22]
SERT Ki/NET Ki [2, 6]: 2.5 | Ki ([3]; hNET binding assay): 2.51 nM

COc1ccccc1OC(c1cc(F)cc(F)c1)C1CCNC1 (racemic) [Compound 20-32]
SERT Ki/NET Ki [2, 4]: 10 | Ki [3, 5]: 0.794 nM

Fc1cc(F)cc(C(Oc2c(F)ccc(F)c2Cl)C2CCNC2)c1 (stereo not drawn) [41-30]
SERT Ki/NET Ki ([2]; ratio of SERT Ki to NET Ki (binding)): 32 | Ki ([3]; hNET binding): 0.2 nM
